# Source: the supplement of paper PMC10307832
# Tests used:
# Test in all cases: relative viability (nuclei count vs DMSO), 5 days (fraction); higher = more cells survive
# Bexarotene + Vorinostat = compound: C=C(c1ccc(C(=O)O)cc1)c1cc2c(cc1C)C(C)(C)CCC2(C)C [Bexarotene] + O=C(CCCCCCC(=O)Nc1ccccc1)NO [Vorinostat] (partner 1 µM)
# How it was run: (§1)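 Each reported value is a median over duplicate plates. It expresses relative viability: treated-well nuclei count divided by vehicle-well nuclei count. Lung cancer cell lines in 1536-well plates were dosed by pin tool a day after seeding, alone with one drug or with a fixed anchor-drug dose plus five library-drug doses (not always all listed) in √10 steps, and nuclei were counted after 5 days.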
# Bexarotene + Dasatinib = compound: C=C(c1ccc(C(=O)O)cc1)c1cc2c(cc1C)C(C)(C)CCC2(C)C [Bexarotene] + Cc1nc(Nc2ncc(C(=O)Nc3c(C)cccc3Cl)s2)cc(N2CCN(CCO)CC2)n1 [Dasatinib] (partner 0.075 µM)
# How it was run: as §1
# Bexarotene + Pictilisib = compound: C=C(c1ccc(C(=O)O)cc1)c1cc2c(cc1C)C(C)(C)CCC2(C)C [Bexarotene] + CS(=O)(=O)N1CCN(Cc2cc3nc(-c4cccc5[nH]ncc45)nc(N4CCOCC4)c3s2)CC1 [Pictilisib] (partner 1 µM)
# How it was run: as §1
# Bexarotene + Crizotinib = compound: C=C(c1ccc(C(=O)O)cc1)c1cc2c(cc1C)C(C)(C)CCC2(C)C [Bexarotene] + C[C@@H](Oc1cc(-c2cnn(C3CCNCC3)c2)cnc1N)c1c(Cl)ccc(F)c1Cl [Crizotinib] (partner 1 µM)
# How it was run: as §1
Cell Line,relative viability (Bexarotene + Vorinostat; first compound 0.08 µM),relative viability (Bexarotene + Vorinostat; first compound 0.253 µM),relative viability (Bexarotene + Vorinostat; first compound 0.8 µM),relative viability (Bexarotene + Vorinostat; first compound 2.53 µM),relative viability (Bexarotene + Vorinostat; first compound 8 µM),relative viability (Bexarotene + Dasatinib; first compound 0.08 µM),relative viability (Bexarotene + Dasatinib; first compound 0.253 µM),relative viability (Bexarotene + Dasatinib; first compound 0.8 µM),relative viability (Bexarotene + Dasatinib; first compound 2.53 µM),relative viability (Bexarotene + Dasatinib; first compound 8 µM),relative viability (Bexarotene + Pictilisib; first compound 0.08 µM),relative viability (Bexarotene + Pictilisib; first compound 0.253 µM),relative viability (Bexarotene + Pictilisib; first compound 0.8 µM),relative viability (Bexarotene + Pictilisib; first compound 2.53 µM),relative viability (Bexarotene + Pictilisib; first compound 8 µM),relative viability (Bexarotene + Crizotinib; first compound 0.08 µM),relative viability (Bexarotene + Crizotinib; first compound 0.253 µM),relative viability (Bexarotene + Crizotinib; first compound 0.8 µM),relative viability (Bexarotene + Crizotinib; first compound 2.53 µM),relative viability (Bexarotene + Crizotinib; first compound 8 µM)
NCI-H1666,0.815,0.959,0.829,0.916,0.791,0.793,0.826,0.783,0.788,0.77,0.256,0.337,0.359,0.58,0.459,1.04,0.897,0.769,0.869,0.952
NCI-H1734,0.779,0.834,0.808,0.65,0.657,0.478,0.484,0.412,0.411,0.46,0.559,0.462,0.4,0.442,0.43,0.724,0.77,0.65,0.667,0.646
NCI-H1755,0.85,0.991,0.815,0.652,0.662,0.436,0.395,0.366,0.403,0.361,0.457,0.454,0.356,0.37,0.337,0.85,1.09,0.971,0.848,0.802
NCI-H1915,0.544,0.579,0.482,0.513,0.513,0.391,0.319,0.292,0.297,0.297,1.19,0.989,0.882,0.996,0.917,0.969,0.948,0.851,0.905,0.849
NCI-H1944,0.74,0.683,0.669,0.675,0.532,0.24,0.216,0.222,0.221,0.293,0.388,0.391,0.336,0.374,0.37,1.3,1.17,1.18,1.26,1.02
NCI-H1975,0.884,0.758,0.725,0.754,0.795,0.468,0.335,0.391,0.335,0.375,0.361,0.347,0.319,0.342,0.386,1.01,1.02,1.05,1.08,1.11
NCI-H1993,0.851,0.691,0.783,0.716,0.672,0.655,0.573,0.528,0.617,0.613,0.803,0.846,0.899,0.866,0.836,0.926,0.751,0.71,0.831,0.746
NCI-H2009,0.692,0.86,0.845,0.76,0.834,0.323,0.33,0.301,0.322,0.359,0.96,0.959,0.723,0.818,0.8,1.16,0.882,1.08,1.08,1.06
NCI-H2023,0.644,0.941,0.619,0.57,0.528,0.628,0.64,0.561,0.522,0.5,0.326,0.245,0.241,0.252,0.222,0.609,0.591,0.715,0.624,0.494
NCI-H2085,0.672,0.804,0.69,0.719,0.692,0.25,0.2,0.19,0.218,0.241,0.449,0.461,0.431,0.386,0.476,0.863,0.891,0.831,0.791,0.74
NCI-H2087,1.07,0.765,0.642,1.09,0.841,1.02,0.919,0.703,0.843,0.903,1.03,0.941,0.91,0.786,0.818,0.854,1.14,0.716,0.827,0.867
NCI-H2126,0.882,0.902,0.703,0.762,0.751,0.573,0.588,0.586,0.584,0.602,0.558,0.512,0.462,0.514,0.519,1.08,1.05,0.989,1.08,0.977
NCI-H2170,0.746,0.913,0.753,0.699,0.687,0.615,0.466,0.522,0.476,0.584,0.352,0.307,0.302,0.271,0.268,1.1,1.11,1.15,1.02,1.05
NCI-H2228,0.784,0.691,0.787,0.665,0.887,0.56,0.635,0.48,0.343,0.509,0.476,0.572,0.358,0.454,0.336,0.512,0.462,0.374,0.356,0.458
NCI-H2347,0.703,0.622,0.513,0.681,0.557,0.358,0.323,,0.259,0.244,0.597,0.62,0.461,0.743,0.605,0.671,0.773,0.597,0.765,0.674
NCI-H2405,1.06,1.01,0.839,0.755,0.951,0.219,0.247,0.136,0.144,0.188,0.58,0.455,0.326,0.538,0.523,0.945,0.853,0.665,0.806,0.839
